Where two headings read alike, the source gives them in different places.
Legend:
[1] = Docetaxel plasma pharmacokinetics (LC-MS/MS, non-compartmental) alone and with pertuzumab in phase Ib patients; format: in vivo, human; details: for AUC(0-inf) / Cmax / half-life: human, plasma, intravenous; for AUC(0-inf): read-out: AUC0-∞ mean (range); for Cmax: read-out: Cmax mean (range); for half-life: read-out: t1/2 mean (range) (converted)
Protocol: (§1) In the first treatment cycle, blood withdrawal for PK analysis was performed 15 and 30 min prior to administration of docetaxel and 15 and 30 min and 1, 2, 4, 8 and 23 h, post administration. Pertuzumab was administered at least 24 h after, on day 2, followed by PK analysis at 15 min and 1.5, 4 and 8 h. In the second cycle, pertuzumab was administered on day 1, immediately followed by the administration of docetaxel and sampling for PK analysis was repeated for both drugs. Plasma samples of docetaxel were analysed using a validated specific liquid chromatography-mass spectrometry (LC-MS/MS) method as described previously ([Agus et al, 2005]). Serum samples were assayed for pertuzumab concentrations using a receptor-binding, enzyme-linked immunosorbent assay. The assay uses immobilised antigen p185^HER2 ECD to capture pertuzumab from serum samples. Bound pertuzumab was detected with mouse anti-human Fc-horseradish peroxidase (Jackson ImmunoResearch Laboratories Inc., West Grove, PA, USA), and tetramethyl benzidine (KPL Inc., Gaithersburg, MD, USA) used as the substrate for colour development to quantify serum pertuzumab against a known standard curve. The assay has a minimum quantifiable concentration of 0.25 μg ml^−1 for pertuzumab in human serum. Pharmacokinetic parameters for docetaxel and pertuzumab were estimated using non-compartmental methods (WinNonLin software version 5.0.1).

[2] = test system: patients with advanced solid tumours
Protocol: This was a phase Ib, open-label, two-center study. […] Pertuzumab was provided by F Hoffmann-La Roche (Basel, Switzerland). Each 10 ml single-use vial contained 175 mg of pertuzumab formulated in 10 mmol l^−1 L-histidine (pH6.0), 240 mmol l^−1 sucrose, and 0.02% polysorbate 20. The first dose of pertuzumab was given by intravenous infusion over 90 min. […] Initially, the planned dose of pertuzumab was fixed dose at 1050 mg for each dose level. […] The dose of docetaxel was sequentially escalated from 60 to 75 to 100 mg m^−2 as outlined in Table 1. […] Initially, three patients were treated in cohort 1, with the first patient being monitored for at least 2 weeks before additional patients were treated. Escalation to a new dose level was permitted when at least two of three patients had been evaluated for 3 weeks. […] At least six patients were to be treated at the 75 and 100 mg m^−2 dose levels before a recommended phase II dose was declared. […]
The incidence and severity of all adverse events, changes in vital signs, laboratory assessments, physical examination findings, and medical conditions during and after treatment with pertuzumab were assessed at least weekly during the first two cycles, and at least weekly three times thereafter, and graded according to NCI-CTC Version 3. […]

[3] = Pertuzumab serum pharmacokinetics (receptor-binding ELISA, non-compartmental) in phase Ib patients; details: for AUC0-last mean (range) / AUC0-∞ mean (range) / Cl mean (range) / Cmax mean (range) / Vss mean (range): serum
Protocol: as §1

[4] = test system: patients with advanced cancer; details: cited from earlier work
[5] = test system: refractory ovarian cancer; HRPC; details: cited from earlier work
[6] = Cohort 1, docetaxel 60 mg m^−2 + pertuzumab 1050 mg, cycle 2, n=6, plasma
[7] = Cohort 1, docetaxel 60 mg m^−2 alone, cycle 1, n=6, plasma
[8] = Cohort 2A, docetaxel 75 mg m^−2 + pertuzumab 420 mg, cycle 2, n=6, plasma
[9] = Cohort 2A, docetaxel 75 mg m^−2 alone, cycle 1, n=6, plasma
[10] = Cohort 3A, docetaxel 100 mg m^−2 + pertuzumab 420 mg, cycle 2, n=4, plasma
[11] = Cohort 3A, docetaxel 100 mg m^−2 alone, cycle 1, n=5, plasma
[12] = 60 mg m^−2, Cohort 1, docetaxel 60 mg m^−2 alone, cycle 1, n=6, plasma
[13] = 75 mg, Cohort 2A, docetaxel 75 mg m^−2 alone, cycle 1, n=6, plasma
[14] = 100 mg, Cohort 3A, docetaxel 100 mg m^−2 alone, cycle 1, n=5, plasma
[15] = pertuzumab 420 mg, cycle 2, n=10, in combination with docetaxel
[16] = pertuzumab 840 mg (loading dose), cycle 1, n=11, in combination with docetaxel
[17] = pertuzumab 1050 mg, cycle 1, n=8, in combination with docetaxel
[18] = pertuzumab 1050 mg, cycle 2, n=7, in combination with docetaxel

## CC(=O)O[C@@]12CO[C@@H]1C[C@H](O)[C@@]1(C)C(=O)[C@H](O)C3=C(C)[C@@H](OC(=O)[C@H](O)[C@@H](NC(=O)OC(C)(C)C)c4ccccc4)C[C@@](O)([C@@H](OC(=O)c4ccccc4)[C@H]21)C3(C)C [docetaxel, Docetaxel]
[1]; [6]
  Cl mean (range): 36 (23–40) × 10^3 ml h m^−2
  Vss mean (range): 102 (64–154) × 10^4 ml m^−2
  AUC(0-inf): 1730 ng·h/mL
  Cmax: 1700 ng/mL
  half-life: 19.7 h
[1]; [7]
  Cl mean (range): 33 (28–39) × 10^3 ml h m^−2
  Vss mean (range): 79 (42–100) × 10^4 ml m^−2
[1]; [8]
  Cl mean (range): 24 (15–34) × 10^3 ml h m^−2
  Vss mean (range): 57 (20–110) × 10^4 ml m^−2
  AUC(0-inf): 3500 ng·h/mL
  Cmax: 2720 ng/mL
  half-life: 15.2 h
[1]; [9]
  Cl mean (range): 22 (13–31) × 10^3 ml h m^−2
  Vss mean (range): 41 (18–70) × 10^4 ml m^−2
[1]; [10]
  Cl mean (range): 22 (12–41) × 10^3 ml h m^−2
  Vss mean (range): 43 (16–76) × 10^4 ml m^−2
  AUC(0-inf): 5220 ng·h/mL
  Cmax: 4700 ng/mL
  half-life: 12.8 h
[1]; [11]
  Cl mean (range): 18 (12–28) × 10^3 ml h m^−2
  Vss mean (range): 25 (16–32) × 10^4 ml m^−2
[1]; cycle 1 alone vs cycle 2 combined
  Pharmacokinetic drug–drug interaction (Cmax, AUC and clearance of docetaxel alone vs in combination with pertuzumab): no drug–drug interaction
[1]; [12]
  AUC(0-inf): 1840 ng·h/mL
  Cmax: 1640 ng/mL
  half-life: 16.9 h
[1]; [13]
  AUC(0-inf): 3740 ng·h/mL
  Cmax: 3130 ng/mL
  half-life: 12.7 h
[1]; [14]
  AUC(0-inf): 5930 ng·h/mL
  Cmax: 5450 ng/mL
  half-life: 9.59 h
[2]; with pertuzumab 420 mg following a loading dose of 840 mg, intravenously every 3 weeks
  Recommended phase II dose of docetaxel in the combination: 75 mg m^−2

## pertuzumab: fully humanised monoclonal antibody, which acts by blocking the association of HER2 with other HER family members
[3]; 1050 mg cycles 1 and 2, 840 mg cycle 1 and 420 mg cycle 2
  PK parameters of pertuzumab in the presence of docetaxel compared with single agent: comparable with single agent values
[3]; [15]
  AUC0-last mean (range): 1491 (914–2289) μg day ml^−1
  AUC0-∞ mean (range): 2762 (1639–3827) μg day ml^−1
  Cl mean (range): 169 (110–256) ml per day
  Cmax mean (range): 150 (102–233) μg ml^−1
  Vss mean (range): 4233 (2823–7058) ml
[3]; [16]
  AUC0-last mean (range): 1749 (1214–3083) μg day ml^−1
  AUC0-∞ mean (range): 2796 (1604–5116) μg day ml^−1
  Cl mean (range): 329 (164–524) ml per day
  Cmax mean (range): 255 (169–447) μg ml^−1
[3]; [17]
  AUC0-last mean (range): 2390 (1733–3355) μg day ml^−1
  AUC0-∞ mean (range): 3951 (2348–4980) μg day ml^−1
  Cl mean (range): 282 (211–447) ml per day
  Cmax mean (range): 301 (143–394) μg ml^−1
  Vss mean (range): 5214 (2975–7036) ml
[3]; [18]
  AUC0-last mean (range): 3500 (3010–4346) μg day ml^−1
  AUC0-∞ mean (range): 6856 (4521–11426) μg day ml^−1
  Cmax mean (range): 368 (253–463) μg ml^−1
  Vss mean (range): 4672 (3023–6580) ml
[4]; in vivo
  Terminal elimination half-life: 2–4 weeks
  Tolerability: well tolerated
[4]; single-agent pertuzumab, phase I studies, not reached, ref Agus et al, 2005
  Maximum tolerated dose: > 15 mg/kg
[2]; in vivo, iv
  Recommended phase II dose of pertuzumab in the combination: 420 mg
[5]; single-agent pertuzumab, refractory ovarian cancer, ref Gordon et al, 2006
  Anti-tumour activity: Significant anti-tumour activity
[5]; single-agent phase II study, HRPC, ref De Bono et al, 2007
  Anti-tumour activity: no evidence of anti-tumour activity
